# Data published in ChEMBL document CHEMBL5385918, “Aculeatiols A-G: Lovastatin Derivatives Extracted from Aspergillus aculeatus” (2024).
# Calls of active or inactive are those of the source. The rule behind the calls is not given here.
# Experiments:
# [1] = tested on: HepG2; experiment: Anti-lipid accumulation activity in human HepG2 cells assessed as reduction in FFA-induced intracellular lipid level pretreated with compound for 48 hrs followed by FFA addition and measured after 48 hrs; type: functional, cell-based; conditions: time 96.0 hrs
# [2] = tested on: HepG2; experiment: Downregulation of FATP2 mRNA expression in FFA-induced human HepG2 cells at 5 to 10 uM pretreated with compound for 24 hrs followed by FFA-induction and measured after 24 hrs by qRT-PCR analysis; type: functional, cell-based; conditions: dose 5-10 µM, time 48.0 hrs
# [3] = tested on: HepG2; experiment: Downregulation of FATP5 mRNA expression in FFA-induced human HepG2 cells at 5 to 10 uM pretreated with compound for 24 hrs followed by FFA-induction and measured after 24 hrs by qRT-PCR analysis; type: functional, cell-based; conditions: dose 5-10 µM, time 48.0 hrs
# [4] = tested on: HepG2; experiment: Downregulation of SCD1 mRNA expression in FFA-induced human HepG2 cells at 5 to 10 uM pretreated with compound for 24 hrs followed by FFA-induction and measured after 24 hrs by qRT-PCR analysis; type: functional, cell-based; conditions: dose 5-10 µM, time 48.0 hrs
# [5] = tested on: HepG2; experiment: Anti-lipid accumulation activity in human HepG2 cells assessed as reduction in FFA-induced number of lipid droplets at 5 to 10 uM pretreated with compound for 24 hrs followed by FFA addition and measured after 48 hrs by oil red O staining based analysis; type: functional, cell-based; conditions: dose 5-10 µM, time 72.0 hrs
# [6] = tested on: HepG2; experiment: Upregulation of ACOX1 mRNA expression in FFA-induced human HepG2 cells at 5 to 10 uM pretreated with compound for 24 hrs followed by FFA-induction and measured after 24 hrs by qRT-PCR analysis; type: functional, cell-based; conditions: dose 5-10 µM, time 48.0 hrs
# [7] = tested on: HepG2; experiment: Upregulation of PPARalpha mRNA expression in FFA-induced human HepG2 cells at 5 to 10 uM pretreated with compound for 24 hrs followed by FFA-induction and measured after 24 hrs by qRT-PCR analysis; type: functional, cell-based; conditions: dose 5-10 µM, time 48.0 hrs
# [8] = tested on: HepG2; experiment: Anti-lipid accumulation activity in human HepG2 cells assessed as reduction in FFA-induced intracellular triglyceride content incubated for 24 hrs; type: functional, cell-based; conditions: dose 5-10 µM
# [9] = tested on: HepG2; experiment: Downregulation of FAS mRNA expression in FFA-induced human HepG2 cells at 5 to 10 uM pretreated with compound for 24 hrs followed by FFA-induction and measured after 24 hrs by qRT-PCR analysis; type: functional, cell-based; conditions: dose 5-10 µM, time 48.0 hrs
# [10] = tested on: HepG2; experiment: Anti-lipid accumulation activity in human HepG2 cells assessed as reduction in FFA-induced intracellular lipid level at 10 uM pretreated with compound for 48 hrs followed by FFA addition and measured after 48 hrs; type: functional; design: scale not given: the % may be the effect or the level left; conditions: time 96 hrs
Compound,Activity [1],also measured
C[C@@H]1C=C2C=C[C@]3(C)OCCC(=O)[C@]3(C)[C@H]2[C@@H](O)C1,Active,–
C/C(=C\[C@H](O)[C@H](O)[C@H](O)[C@H](O)[C@@H]1[C@@H]2[C@@H](CC(=O)[C@@H]1C)C[C@@H](C)C[C@H]2O)C(=O)O,Active,–
C[C@@H]1C=C2C=CC3OCCC(=O)[C@]3(C)[C@H]2[C@@H](O)[C@H]1O (some centres undefined),Active,–
C=C(C)CC(=O)O[C@@H]1C[C@H](C)C[C@@H]2CC(=O)[C@@H](C)[C@H]([C@@H]3O[C@H]3[C@H](O)[C@@H]3C=C(C)C(=O)O3)[C@H]21,Active,–
C=C(C)CC(=O)O[C@@H]1C[C@H](C)C[C@@H]2CC(=O)[C@@H](C)[C@H]([C@@H]3O[C@H]3[C@@H](O)[C@H]3C=C(C)C(=O)O3)[C@H]21,Active,–
C=C(C)CC(=O)O[C@@H]1C[C@H](C)C[C@@H]2CC(=O)[C@@H](C)[C@H]([C@@H]3O[C@H]3[C@H](O)[C@H]3C=C(C)C(=O)O3)[C@H]21,Active,–
Cc1ccc2c(c1)[C@H]1O[C@]3(O)CCO[C@](C)([C@H]1O)[C@]23C,Active,–
C[C@@H]1C=C2C=C[C@]3(CO)OCCC(=O)[C@]3(C)[C@H]2[C@@H](O)C1,Active,–
C\C(=C/C=C/C=C/[C@H]1[C@@H](C)[C@H](O)[C@@H](O)[C@H]2C[C@@H](C)C[C@@H](C)[C@H]12)C(=O)O,Active,Activity [2]: Active; Activity [3]: Active; Activity [4]: Active; Activity [5]: Active; Activity [6]: Active; Activity [7]: Active; Activity [8]: Dose-Dependent Effect; Activity [9]: Active; Activity [10]: 50%
C[C@H]1C[C@H](O)[C@H]2[C@@H](C=C[C@@](C)(O)[C@]2(C)C(=O)CCO)C1,Active,–
